Laboratory results from article PMC13197777, “Distinct 2-phenylimidazo[1,2-a]pyridine derivatives that inhibit breast cancer cell proliferation identified as AHR ligands” (iScience, 2026).
In brackets after ≈: the same amount, converted by molar mass. Like-named read-outs stand apart in the source and are kept apart here.

What was measured:
[1] = test system: MCF-7 luc D538G and MCF-7 luc Y537S; experiment: Clonogenic assay, cells expressing the two mutant ERs (range over both); type: cell-based; details: Homo sapiens, MCF7, read-out: IC50 clonal expansion in cells expressing the two mutant ERs
Procedure: (§1) Cells were seeded at a density of 1–2×10^3 cells/well in a 6-well plate and treated with increasing concentrations of the X compounds for 14–21 days. Medium and compounds were renewed every 7 days. The experiments were terminated by fixing the cells with methanol and the colonies formed were visualized after staining with 0.5% crystal violet (w/v) in 20% methanol (v/v). Plates were photographed and the area covered by the colonies was calculated using the ColonyArea Plugin for Fiji (RRID:SCR_003070).[20]

[2] = test system: CTC-ITB-01 cells; experiment: cells; type: cell-based; details: for CC50: Homo sapiens, read-out: LC50
Procedure: LC50 values were measured using the CyQUANT NF Cell Proliferation Assay Kit (Thermo Fisher). CTC-ITB-01 cells were plated at a density of 2x10^3 cells/well in 96-well plates and treated the following day with serial dilutions of the test compounds. After incubation for the indicated time, cells were stained with CyQUANT dye according to the manufacturer’s protocol and incubated at 37°C for 30 min. Fluorescence was measured using a Tecan Infinite M Nano+ (excitation: 485 nm; emission: 530 nm). For the calculation of the LC50 the fluorescence was plotted against the Log10 of the inhibitor concentration in nM as x values and the LC50 values were calculated with 95% confidence intervals (n = 4).

[3] = test system: CTC-ITB-01 cells; experiment: Clonogenic assay of CTC-ITB-01 cells; type: cell-based, human; details: CTC-ITB-01, two weeks of treatment
Procedure: as §1

[4] = test system: PDxO#28; experiment: Organoid viability, CellTiter-Glo 3D; type: cell-based, human; details: PDxO#28 in 3D Matrigel, 7 days, increasing doses; same results in PDO#268 and PDO#480
Description: Organoids were generated from patients’ samples and from patient-derived xenograft (PDX) tumors, as previously described.[25] PDX were derived from BCRO#28, an ER^+ breast cancer sample collected from a treatment naive patient. PDO#268 was derived from BCRO#268, an ER^+ breast cancer sample collected from treatment naive patient. PDO#480 was derived from BCRO#480, an ER^+ breast cancer sample collected from a patient subjected to chemotherapy in neo-adjuvant setting. Briefly, tumors freshly explanted from mice were mechanically shredded, digested with collagenase (Merck) and filtered through a 100 μm strainer. Digested material (isolated cells and small cell clusters) was centrifuged and embedded in 3D-matrix drops (reduced growth factor Basement Membrane Extract, BME, R&D systems), then overlaid with breast cancer organoid medium.[25] For 3D survival curves under treatment, organoids were embedded in BME drops and, after 24 - 48 h, drugs were added. Fresh drug-containing medium was replaced on day 4. On day 7 of treatment, CellTiter-Glo 3D Cell Viability Assay (Promega) was added and luminescent signal from viable organoids was recorded on Infinite M1000 Pro instrument (Tecan).

[5] = Thermodynamic solubility, shake-flask method; type: physicochemical; details: HEPES buffer 0.1 M pH 7.4, 21 °C
Procedure: Thermodynamic solubility was determined using the classical shake-flask method. The solid compound (4 mg) was suspended in 1 mL HEPES buffer (0.1 M, pH 7.4) and constantly stirred at 21 °C for 24 h. […] The injection volume for all analyses was 50 μL and the flow rate was kept at 1 mL/min during the analysis. A mobile phase gradient method was applied as a method with 5% solvent B to 99% solvent B in 5 min, followed by 3 min of elution at 99% solvent B.
Calibration curve was generated from a serial dilution of the respective analyte in DMSO at 2.5, 1.25, 0.625, 0.313, 0.156, 0.078, 0.039 mM starting from a 10 mM DMSO stock solution. Subsequently, 2 μL of each dilution was added to 198 μL of a buffer (HEPES, 0.1 M, pH 7.4)/acetonitrile mixture in a 3:2 ratio yielding final dilutions of 25, 12.5, 6.25, 3.125, 1.562, 0.781, 0.391 μM. These were then subjected to HPLC analysis as described above.
Using the results from the linear regression of the internal calibration measurement points (Figure S5) and the mean AUC values from the saturated aqueous solutions, the concentration C of the analytes in the saturated aqueous solution, expressed in μM, were calculated using Equation 2:(Equation 1) AUC=Slope·C+YIntercept (Equation 2) C=AUC−YIntercept/Slope

[6] = Compound stability in aqueous environment; type: physicochemical; details: 12.5 μM, HEPES pH 7.4/acetonitrile 3:2, 1% DMSO, 21 °C, 5 days
Procedure: The stability of the compounds was evaluated at a concentration of 12.5 μM in a 3:2 mixture of buffer (HEPES, 0.1 M, pH 7.4) and acetonitrile, with 1% DMSO. Acetonitrile was added because the concentration of 12.5 μM exceeded the thermodynamic solubility of the compounds in the buffer. This addition thereby prevented the formation of precipitates and a gradual decrease in compound concentration during the measurement. The resulting solution was stirred at 21 °C in a sealed vial (crimp neck vials, 5 mL, clear (Cat. No. 548-0611A) in combination with natural rubber septa (548-0565A) and aluminum crimp caps (548-3278A), VWR International) for 5 days. […] The AUC measured was subsequently plotted as a function of the incubation time (Figure S3). No signs of decomposition could be observed over the given time.

[7] = test system: AHR target genes CYP1A1, CYP1B1, ALDH3A1; details: human, 16 h, 1 µM
[8] = test system: ERα target genes (PGR, TFF1, PDZK1, GREB1); experiment: Quantitative RT-PCR of ER target genes in MCF-7 cells; details: MCF-7, 1 μM, absence and presence of 10 nM E2, 24 h

Compound | IC50 [1] [µM] | LC50 fold lower compared to fulvestrant ([2]; CTC-ITB-01, 48 h and 120 h) [fold] | CC50 ([2]; 48 h) [µM] | CC50 ([2]; 120 h) [µM] | inhibition of clonal expansion compared to fulvestrant [3] | organoid viability (survival) [4] | solubility thermodynamic at 24 h [5] [µM] | solubility thermodynamic at 24 h ([5]; HEPES buffer, 21 °C, pH 7.4, aqueous buffer, thermodynamic from solid) [µM] | stability in aqueous environment [6] | expression of AHR target genes (RT-PCR) [7] | expression of ERα target genes (RT-PCR) [8]
Fc1ccc(-c2cn3cc(C(F)(F)F)cc(Cl)c3n2)cc1 [X15695] | 0.00782 to 0.0116 | 20 | 0.4 | 0.3 | about three orders of magnitude more potent | significantly reduced survival in a dose-dependent manner | 3 (≈ 0.944 µg/mL) | 2.99 (≈ 0.941 µg/mL) | no obvious decomposition detected | enhanced the transcriptional activity of the AHR target genes in both MCF-7 and T47D cells | 
Cc1cc(Cl)c2nc(-c3ccccc3)cn2c1 [X19728] |  |  |  |  |  |  |  |  |  |  | not significant in the presence of E2
